Test results reported in patent US5874461A, “Use of Nebivolol as an anti-atherogenic” (priority 1995, dated 1999).

Assays:
[1] = test system: primary embryonic hippocampal cultures; assay: VitE complementation (vitE depletion) test on primary neuronal cultures; assay type: cell-based, rats; conditions: for rescue of survival of vitE depleted cultures: 10^-7 M and 10^-6 M
Method: Primary embryonic hippocampal cultures were prepared essentially as described previously (Pauwels et al., Van Aschouw, H. P., Peeters, L., Moeremans, M., Leysen, J. E. (1992) Chronic treatment with sabeluzole protects cultured rat brain neurons from the neurotoxic effects of excitatory amino acids. Synapse, 12:271-280). Hippocampal formations of rats at embryonic day 17 were dissected and dissociated in 0.05% trypsin, 0.1 mg/ml DNase I in DMEM (Dulbecco Modified Eagle Medium). Heat-inactivated horse serum (HS) was added to a concentration of 4%, and the cells were centrifuged, washed with DMEM, and resuspended in DMEM/Ham's F12 (3:1) containing 10% HS. The cells were plated at a density of 4×10^5 cells/cm^2 in poly L-lysine (0.001%) precoated multiwell-24 plates. On day 1 in culture, the medium was changed to chemically defined CDM-R12 medium (DMEM-HEPES/Ham's F12 (3:1) containing 0.26% bovine serum albumin, 30 nM sodium selenite, 3 nM 3,3',5 triiodo-L-thyronine, 0.35 μM retinol, 0.3 μM retinol acetate, 2.3 μM DL-a-tocopherol, 2.1 μM DL-a-tocopherol acetate, 3.6 μM linolenic acid, 3.6 μM linoleic acid, 0.125% human transferrin, […], 57.7 nM corticosterone, 49 U/I insulin, 0.4 μM biotin, 10 μM L-carnitine, 83 μM D(+)-galactose, 3.3 μM glutathione, 10 μM ethanolamine, 0.1 mM putrescine; Romijn, H. J., van Huizen, F., Wolters, P. S. (1984) Towards an improved serum-free, chemically defined medium for long-term culturing of cerebral cortex tissue. Neurosci. Behav. Rev., 8:301-334). Acute and prolonged pretreatment of the, cultures was essentially as described previously (Pauwels et al., 1992). Drugs were dissolved, and diluted in 10% or 1% hydroxypropyl-β-cyclodextrin such that the final concentrations of the solvent in the acute and chronic exposures were 0.1% and 0.01% respectively. Compound A as used in the following examples is [(RRSR)+(RRRS)+(SSSR) +(SSRS)]-α-[[[2-(chroman-2-yl)-2-hydroxy-ethyl]amino]methyl]-6-hydroxy-2-chromanmethanol ethanedioate (1:1).
For vitE depletion experiments, primary cultures were set up as above, but on day 1 in culture, the medium was changed to chemically defined CDM-R12 medium with (control) or without DL-a-tocopherol (vitE) and DL-a-tocopherol acetate, in the presence or absence of test coumpound. […] Addition of compounds could rescue the cultures. […] The EC50 for complementation of vitE refers to the concentration of the compound required to restore culture survival to 50% of the survival seen for the culture grown in vitE supplemented medium. Seven concentrations of each compound were tested in triplicate, the number of independent experiments is indicated in the table, and the mean EC50 -value±SD was calculated.
Primary neuronal cultures depend on the presence of the antioxidant vitE in the culture medium for survival in vitro. When vitE depleted medium is used to grow the cultures, survival drops to ±20% of control. Compounds with antioxidative properties are able to complement the lack of vitE, and as such can when added to the culture medium, rescue vitE devoid cultures. Several nebivolol derivatives were tested at 10^-7 M and 10^-6 M in the vitE depletion test on primary neuronal cultures.
When nebivolol derivatives were administered during culture, the cultures could be rescued to a certain extent. 100% vitE complementation refers to the survival of a cell culture which is indifferent from a vitE containing cell culture.
When hydroxynebivolol was administered during culture, the cultures could be rescued. The EC50 refers to the concentration at which the culture is rescued for 50%, as measured by cytoplasmic LDH activity.

[2] = test system: β-1; conditions: EP-0,334,429; cited from earlier work
[3] = atenolol, propanolol, prazosin, hydralazine and its own (SRRR) enantiomer; EP-0,334,429; cited from earlier work

SMILES | % vitE complementation ([1]; 10^-6 M) [%] | % vitE complementation ([1]; 10^-7 M) [%] | rescue of survival of vitE depleted cultures [1] | β-1 blocking activity [2] | potentiation of antihypertensive agents [3]
O[C@H](CNC[C@@H](O)[C@H]1CCc2cc(F)ccc2O1)[C@@H]1CCc2cc(F)ccc2O1 [Compound 1-nebivolol, (SRRR) α,α'-iminobis(methylene)bis[6-fluoro-2-chroman-methanol]] | 24 ± 26 | 22 ± 20 | able to rescue survival of vitE depleted cultures to a certain extent | potent and selective β-1 blocking agent | 
O[C@@H](CNC[C@H](O)[C@H]1CCc2cc(F)ccc2O1)[C@@H]1CCc2cc(F)ccc2O1 [d-nebivolol, (RSSS) α,α'-iminobis(methylene)bis[6-fluoro-2-chroman-methanol]] | 19 ± 22 | 12 ± 17 | able to rescue survival of vitE depleted cultures to a certain extent | not to be a potent β-1 blocking agent | potentiator for a series of antihypertensive agents
